According to US9180107B2 (NANOPHARMACEUTICALS LLC, priority 2009, dated 2015):
Read-outs that look alike come from different tables or passages of the source.

How the values were obtained:
TGS112T cells = experiment: Cell proliferation by cell counting; type: cell-based, human; settings: treated daily with 10^−6 M
Description: FIG. 6 is a series of graphs showing the effects of tetrac and nano-tetrac in human adenoid cystic carcinoma (TGS112T). In FIG. 6A, TGS112T cancer cells were treated with 10^−7M T4 in the presence or absence of 10^−7M tetrac for 24 h. T4-induced PCNA expression was inhibited by tetrac. In FIG. 6B, TGS112T cancer cells were treated with 10^−7 M T4 in the presence or absence of 10^−7 M tetrac or nano-tetrac, daily and 1 μCi [^3H]-thymidine (final concentration, 13 nM) was added for 24 h. […] In FIG. 6C, TGS112T cells were treated daily with 10^−6 M tetrac or nano-tetrac. Cells were harvested at the time points as indicated. Total cell numbers taken after each treatment were used as indicator for tetrac- or nano-tetrac-induced anti-proliferation.
Human adenoid cystic carcinoma TGS112T cells were cultured in medium that contained 0.25% hormone-stripped serum for 2 d and then treated with 10^−7 M tetrac or nano-tetrac for 30 min prior institution of 10^−7 M T4 treatment for 24 h. Nuclear proteins were separated by SDS-PAGE followed by western blot analysis with proliferating-cell nuclear antigen (PCNA) antibody. Thyroid hormone-induced PCNA accumulation was inhibited by tetrac. (See FIG. 6A). […] (See FIG. 6A). Inhibition of thyroid hormone-induced proliferation was confirmed by inhibition by tetrac and nano-tetrac of thyroid hormone-induced accumulation and [^3H]-thymidine incorporation. […]

[1] = system: Human glioblastoma U87MG cells; experiment: Anti-proliferation (total cell counts) in bellows cell culture system with pharmacodynamic modeling; type: cell-based; settings: for decrease in cell counts compared with untreated control cells: 7-d treatment; for IC50: Homo sapiens, U-87 MG, nano-tetrac IC50 are hypothetical concentrations assuming all bound tetrac is available
Description: Each cell culture system is a compressible (bellows) 500 mL bottle which contains cell culture medium and specially-treated polymer flakes to which cells spontaneously attach and grow. Through moving bellows and porous membranes, the level of the medium in the bottle changes periodically. Consequently, the cells are alternately submerged in the culture medium, then exposed to 5% CO2/95% air which creates a dynamic interface between air and medium on the cell surface that maximizes nutrient uptake and oxygen transfer. The system provides a low shear, high aeration and foam-free culture environment. Proprietary treatment of the surfaces of the flakes enables seating and harvesting of cells and secreted proteins are readily isolated from the perfusate.
In a non-perfusion bellows cell culture system that was also used, the medium in each bottle was replaced by fresh medium every 24 h. In the perfusion bellows cell culture system, medium was progressively refreshed over 24 h, i.e., one complete change of medium occurred over 24 h.
In establishing the system, 5×10^7 cells were seeded in perfusion and non-perfusion bellows bottles and incubated overnight at 37° C. After that, flakes were harvested, trypsinized and cells were collected. Cell numbers were counted. The numbers of cells that attached to were 10-15×10^6 per bottle. For experiments, the perfusion bellows cell culture system was run for 2 d prior to starting experiments. The cell numbers at this point were about 30-50×10^6 cells/bottle. Cell cultures were then exposed to 1% FBS-containing medium. Tetrac or nano-tetrac was added to the medium in the reservoir bottle to achieve the final concentrations reported for each experiment.
The time course of cell counts of the various cancer lines treated with different concentrations of tetrac or nano-tetrac was modeled by utilizing the pooled approach in NONMEM VI (version 6.2). All time points and treatment arms within each experiment were modeled simultaneously. A mechanism-based model (see Bulitta et al., 2009. Antimicrob. Agents Chemother. 53:46-56) was adapted to describe the proliferation of cancer cells and the inhibition of proliferation by tetrac. This model assumes two populations of cells in different phases of the cell cycle: cells that are preparing for replication (phase 1) and cells that are immediately “pre-replication” (phase 2). Cells transition from phase 1 to phase 2 by a first-order growth rate constant, while replication from phase 2 to phase 1 is assumed to be fast (see FIG. 2).
[formula] [formula] [formula] where C1 is the number of cells in phase 1, C2 the number of cells in phase 2, k21 the first order rate constant for replication (transition from phase 2 to phase 1), and k12 the first-order growth rate constant for transition from phase 1 to phase 2. The total number of cells Ct is the sum of C1 and C2. Rep is the replication efficiency factor which is described by:
[formula] where Cmax is the maximum number of cells. Without tetrac, the replication efficiency factor approaches 2, which reflects a 100% probability of successful replication. InhR describes the inhibitory effect of tetrac on the probability of successful replication:
[formula] Where ImaxR is the maximum effect of tetrac on probability of successful replication and IC50R is the tetrac concentration needed to achieve a half-maximal effect. Inhk describes the inhibitory effect of tetrac on the rate of growth:
[formula] Where Imaxk is the maximum effect of tetrac on rate of growth and IC50k is the tetrac concentration needed to achieve a half-maximal effect. Results

[2] = Turnover rate (stability) of tetrac in the culture system; type: physicochemical
Description: In LC/MS/MS experiments, medium samples (20 μL) were injected onto an HP 1100 series HPLC system (Agilent Technologies, Palo Alto, Calif., USA), equipped with a narrow-bore column Zorbax Eclipse XDB-C18 (5 μm, 150×2.1 mm; Agilent). Separation was performed using a mobile phase of 0.1% (v/v) acetic acid (A) and 100% acetonitrile (B), with a linear gradient of 20-60% B over 25 min. Flow rate was maintained at 0.2 mL min^−1 and elution was monitored by a diode array detector (200-600 nm). The LC effluent was then introduced into a turbo ion-spray source on a Q/STAR-XL quadruple/time-of-flight (TOF) hybrid mass spectrometer (Applied Biosystems, Foster City, Calif., USA). Negative ESI mass spectra were acquired over the range from m/z 100 to 400. The electrospray voltage was set at −4.5 kV and the source temperature was maintained at 475° C. […]
Human glioblastoma U87MG cells were treated with different concentrations of tetrac (10^−9-10^−5M) for 7 d and tetrac was replenished daily. The turnover rate of tetrac in the culture system was measured. Tetrac detected was 75% of the original concentration after 24 h incubation in medium with 10% FBS in the absence of cells at both room temperature and 37° C. […]

[3] = U87MG, model parameter estimate

IC50 ([1]; U87MG, model parameter estimate, read-out: IC50R (effect on success of replication)): 47.4 µM
IC50 ([1]; U87MG, model parameter estimate, read-out: IC50k (effect on rate of growth)): 0.047 µM
Tetrac detected, % of the original concentration ([2]; 24 h incubation in medium with 10% FBS, absence of cells, room temperature and 37° C.): 75%
tetrac decay ([2]; incubated with cell cultures at 37° C.): 12%
SMILES: O=C(O)Cc1cc(I)c(Oc2cc(I)c(O)c(I)c2)c(I)c1 [tetrac, Tetraiodothyroacetic acid]
cell count after 7 d (TGS112T cells): 3.65×10^8 cells
decrease in cell counts compared with untreated control cells ([1]; 10^−7 M): > 28%
decrease in cell counts compared with untreated control cells ([1]; 10^−8 M): more than 15%
ImaxR (maximum effect on success of replication) [1, 3]: 0.92
Imaxk (maximum effect on rate of growth) [1, 3]: 0.57
